We go through 2 molecules from patent US9255072B2, “Pyrazole compounds and thiazole compounds as protein kinases inhibitors” (National Health Rsearch Institutes, priority 2011, dated 2016).

Each structure is given as a SMILES string. pIC50: −log10 of the molar value. Where two headings read alike, the source gives them in different places. Bounds are passed on as bounds.

The target of experiment [1] is T1, Aurora A (Homo sapiens, UniProt O14965).
T1 construct: GST-Aurora A (residues S123-S401); GST (N); made in house; host or cells: Sf9 insect cells
T1 sequence (O14965 123-401): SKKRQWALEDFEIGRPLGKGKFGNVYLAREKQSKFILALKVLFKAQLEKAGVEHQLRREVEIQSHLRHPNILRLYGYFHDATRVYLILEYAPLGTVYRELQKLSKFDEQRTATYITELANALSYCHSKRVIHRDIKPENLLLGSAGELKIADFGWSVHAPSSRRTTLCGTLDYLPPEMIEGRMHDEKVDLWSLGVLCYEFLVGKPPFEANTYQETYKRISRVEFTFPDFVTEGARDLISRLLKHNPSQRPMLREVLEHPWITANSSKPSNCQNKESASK
As to the kind of experiment: Aurora kinase A Kinase-Glo kinase assay. The format is biochemical. How it is done:
The recombinant GST-Aurora A (residues S123-S401) containing kinase domain were expressed in Sf9 insect cells. The kinase assay were carried out in 96-well plates with tested compound in a final volume of 50 μl reaction at 37° C. for 90 minutes with following components: 50 mM Tris-HCl pH 7.4, 10 mM NaCl, 10 mM MgCl2, 0.01% BSA, 5 μM ATP, 1 mM DTT and 15 μM tetra(LRRASLG) peptide, and 150 ng recombinant Aurora A. Following incubation, 50 μl Kinase-Glo Plus Reagent (Promega, Madison, Wis., USA) was added to each well and the mixture was incubated at 25° C. for 20 min. A 70-μL aliquot of each reaction mixture was transferred to a black microtiter plate and the luminescence was measured on Wallac Vector 1420 multilabel counter (PerkinElmer, Shelton, Conn., USA).
For orientation: Kinase-Glo measures the ATP left after a reaction by luminescence.

For experiment [2], the target named is T2, wt-FLT3 (Homo sapiens, UniProt P36888).
T2 construct: FLT3 kinase catalytic domain (residues Y567˜S993); made in house; host or cells: Sf9 insect cells (baculovirus, pBac-PAK8-GST-FLT3-KD plasmid)
T2 sequence (P36888 567-993): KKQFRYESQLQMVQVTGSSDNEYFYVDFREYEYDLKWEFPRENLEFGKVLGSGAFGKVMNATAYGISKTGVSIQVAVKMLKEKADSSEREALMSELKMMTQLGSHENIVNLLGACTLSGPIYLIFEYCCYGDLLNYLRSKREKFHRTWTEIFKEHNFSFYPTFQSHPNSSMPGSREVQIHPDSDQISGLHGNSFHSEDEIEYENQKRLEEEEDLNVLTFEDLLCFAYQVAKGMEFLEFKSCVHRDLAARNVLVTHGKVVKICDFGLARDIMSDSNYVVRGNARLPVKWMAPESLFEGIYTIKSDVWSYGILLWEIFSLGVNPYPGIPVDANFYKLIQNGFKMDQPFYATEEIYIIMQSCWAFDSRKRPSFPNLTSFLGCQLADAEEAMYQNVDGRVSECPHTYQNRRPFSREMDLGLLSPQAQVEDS
As to the kind of experiment: FLT3 WT Kinase-Glo assay. Format: biochemical. The note with it: for pIC50: FLT3 WT Kinase-Glo, 1 μM ATP, read-out: IC50; for IC50: table of representative values, read-out: IC50 (nM) wt-FLT3. The essentials: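 GST-tagged wild-type FLT3 kinase domain (residues Y567–S993), expressed in Sf9 cells, was used. After the kinase reaction, remaining ATP was detected by Kinase-Glo Plus luminescence following 20 min at 25 °C.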

Experiment [3] deals with T3, VEGFR2 (Homo sapiens, UniProt P35968).
T3 construct: GST-VEGFR2 (residues V789-V1356); GST (N); made in house; host or cells: Sf9 insect cells
As to the kind of experiment: VEGFR2 Kinase-Glo kinase assay. Format: biochemical.

The test system of experiment [4] is MOLM-13 cell. As to the kind of experiment: MTS cell viability assay. The format is cell-based. The note with it: Homo sapiens, MOLM-13, 72 h, table of representative values. An excerpt:
The leukemias cell lines MOLM-13, MV4:11, RSV4:11, MOLT-4, U937, and K562 were purchased from American Type Culture Collection (ATCC, Manassas, Va., USA). The non-leukemias cell lines HCC827, H1975, NCIH460, A431, Huh7, SF268, MCF-7, HCT-116, and normal human fetal fibroblast cell line Detriot 551 were purchased from American Type Culture Collection (ATCC, Manassas, Va., USA). All leukemias cell lines and HCC827, H1975, NCIH460, A431 were maintained in RPMI 1640 medium supplemented with 10% fetal bovine serum (FBS), 10 U/ml penicillin, and 10 µg/ml streptomycin at 37° C. and 5% CO2. The cell lines Huh7, SF268, MCF-7, and Detroit 551 were cultured in DMEM medium supplemented with 10% FBS, 0.01% nonessential amino acids, 10 U/ml penicillin, and 10 µg/ml streptomycin. HCT-116 were cultured in McCoy's 5A medium supplemented with 10% FBS, 0.01% nonessential amino acids, 10 U/ml penicillin, and 10 µg/ml streptomycin. To determine cell viability after drug treatment, assays were performed by seeding 10,000 cells (leukemias cell lines) or 2,500 cells (non-leukemias cell lines) per well in a 96-well culture plate. After 16 h, cells were then treated with vehicle or various concentrations of compound in medium for 72 h. Viable cells were quantitated using the MTS method (Promega, Madison, Wis., USA) according to the manufacturer's recommended protocol. The results were determined by measuring the absorbance at 490 nm using a plate reader (Victor2; PerkinElmer, Shelton, Conn., USA).
Background: Formazan colour is commonly taken as a measure of viable cells.

[5] abbreviates: Aurora A assay, 5 μM ATP, bound in nM, read-out: IC50.
[6] abbreviates: Aurora A assay, 5 μM ATP, bound in μM, read-out: IC50.
The mark [7] stands for this setting: table of representative values, read-out: IC50 (nM) Aurora A.
Where [8] appears, read: VEGFR2 assay, 1 μM ATP, bound in μM, read-out: IC50.
The mark [9] stands for this setting: VEGFR2 assay, 1 μM ATP, ranges in nM, read-out: IC50.
The mark [10] stands for this setting: table of representative values, read-out: IC50 (nM) VEGFR2.

T3 sequence (P35968 789-1356): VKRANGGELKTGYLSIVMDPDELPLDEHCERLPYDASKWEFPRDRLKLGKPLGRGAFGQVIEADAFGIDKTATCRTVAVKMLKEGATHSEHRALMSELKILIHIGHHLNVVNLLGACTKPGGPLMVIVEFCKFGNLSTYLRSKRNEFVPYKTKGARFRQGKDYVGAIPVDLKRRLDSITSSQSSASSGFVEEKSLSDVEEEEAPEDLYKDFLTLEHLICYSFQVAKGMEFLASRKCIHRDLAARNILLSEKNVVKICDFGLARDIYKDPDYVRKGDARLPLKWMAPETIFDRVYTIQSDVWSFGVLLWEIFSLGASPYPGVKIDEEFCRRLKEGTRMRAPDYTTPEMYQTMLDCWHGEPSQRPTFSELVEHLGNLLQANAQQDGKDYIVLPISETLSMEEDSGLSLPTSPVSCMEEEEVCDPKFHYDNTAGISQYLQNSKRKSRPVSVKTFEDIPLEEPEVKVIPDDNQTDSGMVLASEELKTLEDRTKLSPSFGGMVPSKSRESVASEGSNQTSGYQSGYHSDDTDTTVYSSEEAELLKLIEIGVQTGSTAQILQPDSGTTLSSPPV

Usually IC50 stands for the midpoint of a concentration-inhibition curve. One may read the pIC50 as −log10 of the IC50, conventionally taken in molar units. For orientation: GI50 means the concentration giving 50% growth inhibition. Read a high GI50 as lower sensitivity of the cells. Take `CCc1cc(NC(=O)Nc2ccc(-c3cnc(Nc4cc(N5CCC(N)C5)nc(C)n4)s3)cc2)no1` (stereo not drawn) [Compound 119, N-[4-(2-[6-(3-aminotetrahydro-1H-1-pyrrolyl)-2-methyl-4-pyrimidinyl]amino-1,3-thiazol-5-yl)phenyl]N′-(5-ethyl-3-isoxazolyl)urea]: the IC50 in experiment [1] (setting [5]) is under 200 nM; in experiment [1] (setting [6]), under 1000 nM; in experiment [1] (setting [7]), 38 nM; in experiment [2], 14 nM; in experiment [3] (setting [8]) it was under 1 µM; in experiment [3] (setting [9]), 0.001 to 0.055 µM. In addition, in experiment [3] (setting [10]), the IC50 came to 0.007 µM. The negative logarithm of the IC50 (pIC50) in experiment [2] is 7.70 to 9.00. Besides, in experiment [4], it took 3 nM to inhibit growth by half (GI50).
As for `CCc1cc(NC(=O)Nc2ccc(-c3cnc(Nc4cc(N5CCN(CC)CC5)nc(C)n4)s3)cc2)no1` [Compound 112, N-(5-ethyl-3-isoxazolyl)-N′-[4-(2-[6-(4-ethylpiperazino)-2-methyl-4-pyrimidinyl]amino-1,3-thiazol-5-yl)phenyl]urea], the half-inhibitory concentration (IC50) in experiment [1] (setting [5]) was under 200 nM; in experiment [1] (setting [6]), under 1000 nM; in experiment [1] (setting [7]), 32 nM; in experiment [2] it was 15 nM; in experiment [3] (setting [8]), under 1 µM; in experiment [3] (setting [9]), 0.001 to 0.055 µM. For the same molecule, in experiment [3] (setting [10]), the IC50 came out at 0.025 µM. Moreover, the negative logarithm of the IC50 (pIC50) in experiment [2] is 7.70 to 9.00. Further, the GI50 in experiment [4] turned out to be 2 nM.
